Measured values published in US20050059608A1, “Pharmaceutical compounds” (priority 2001, published 2005).

Key:
[1] = Hydrolysis in aqueous solution (chemical hydrolysis in phosphate buffer); type: physicochemical; conditions: aqueous phosphate buffer 0.16 M; for half-life: read-out: Pseudo-first order half-time (t1/2) for chemical hydrolysis (converted)
Procedure: (§1) The HPLC system used consisted of a Beckman System Gold Programmable Solvent Module 126, Beckman System Gold Detector Module 166 with variable wavelength UV detector (set at 254 nm) and a Beckman System Gold Autosampler 507e. Separations were accomplished on a Purospher RP-18 reverse-phase column, 12.5 cm×4.0 mm i.d., 5 μm (Merck, Darmstadt, Germany). The chromatographic conditions were as follows: injection volume, 50 μl; column temperature, 40° C.; flow rate, gradient/isocratic at 1.0 ml/min. The mobile phase consisted of various proportions of methanol/water mixture (90:10) and a citrate/phosphate buffer pH 2.2.
The rate of chemical hydrolysis was determined in aqueous phosphate buffer solution (0.16 M) at pH 7.4, 5.0, and 1.2 at 37° C. An appropriate amount was dissolved in 10 ml of preheated buffer and the solution was placed in a thermostatically controlled water bath at 37° C. At appropriate time intervals, samples were taken and analyzed for the remaining codrug by HPLC. Pseudo-first order half-time (t1/2) for the hydrolysis was calculated from the slope of the linear portion of the plotted logarithm of remaining codrug vs. time.

[2] = Hydrolysis in 10% rabbit liver homogenate; type: in vitro ADME; conditions: 10% rabbit liver homogenate (9,000 g supernatant), pH 7.4, 37° C., read-out: t1/2 of hydrolysis in rabbit liver homogenate
Procedure: as §1
The rabbit liver was homogenized with approximately four equivalent volumes of isotonic phosphate buffer at pH 7.4 using an X-1020 homogenizer (Ystral, Germany). The homogenate was centrifuged for 90 min at 9,000 g and 4° C. with a Biofuge 28 RS centrifuge (Heraeus Instruments, Germany). The supernatant was stored at −80° C. until analysis. An appropriate amount was dissolved in one volume of preheated 20% liver homogenate. The solution was then incubated at 37° C. At appropriate time intervals, samples (300 μl) were withdrawn. Samples were pretreated with 300 μl of methanol to terminate enzymatic activity. […] The residue was dissolved in 400 μl of the mobile phase buffer and analyzed by HPLC.

[3] = after oral administration; cited from earlier work

| SMILES | Pseudo-first order half-time (t1/2) for chemical hydrolysis ([1]; pH 1.2, 37° C.) | half-life ([1]; pH 5.0, 37° C.) | half-life ([1]; pH 7.4, 37° C.) | half-life [2] | bioavailability of entacapone [3] |
| --- | --- | --- | --- | --- | --- |
| CCN(CC)C(=O)/C(C#N)=C/c1cc(OC(=O)N[C@@H](Cc2ccc(O)c(O)c2)C(=O)OC)c(O)c([N+](=O)[O-])c1 [Example 1, (S)-2-{5-[(E)-2-cyano-2-(diethylcarbamoyl)vinyl]-2-hydroxy-3-nitrophenoxycarbonylamino}-3-(3,4-dihydroxyphenyl)propionic acid methyl ester] | 12.1 h | 1.4 h | 1.1 h | 7 min |  |
| CCN(CC)C(=O)/C(C#N)=C/c1cc(O)c(O)c([N+](=O)[O-])c1 [entacapone, (E)2-cyano-N,N-diethyl-3-(3,4-dihydroxy-5-nitrophenyl)propenamide] |  |  |  |  | 29-46% |
